Test system: Pyrenophora teres
Test: Test Example 8: barley Pyrenophora teres, foliar application before inoculation, 50 ppm
Type: in vivo
Details: barley (Nishinohoshi), 50 ppm foliar application, inoculated two days after, 3 days + 7 days

## CCN(C)/C=N/c1cc(C)c(OCC(F)(F)C(F)(F)C(F)(F)C(F)(F)C(F)(F)F)cc1C [present compound 7]
  lesion area on the treated plant relative to the area of lesions on an untreated plant: ≤ 30%

From patent publication US20130296436A1, “AMIDINE COMPOUNDS AND USE THEREOF FOR PLANT DISEASE CONTROL” (SUMITOMO CHEMICAL COMPANY, LIMITED, priority 2010, published 2013)
